# Measurements from ChEMBL document CHEMBL1944629, “Investigation of trypanothione reductase inhibitory activity by 1,3,4-thiadiazolium-2-aminide derivatives and molecular docking studies” (Bioorg Med Chem, 2012).
# The source made the active and inactive calls. The rule behind the calls is not given here.
# Assays:
# [1] = molecular target: Trypanothione reductase (Leishmania infantum) (UniProt A4HSF7); assay: Inhibition of trypanothione reductase in promastigotes of Leishmania infantum MHOM/MA67ITMAP263 extracts assessed as NADPH consumption using trypanothione disulfide as substrate at 1 uM after 5 sec by spectrophotometer
# Chain of Trypanothione reductase (Leishmania infantum) (A4HSF7 as listed by the source): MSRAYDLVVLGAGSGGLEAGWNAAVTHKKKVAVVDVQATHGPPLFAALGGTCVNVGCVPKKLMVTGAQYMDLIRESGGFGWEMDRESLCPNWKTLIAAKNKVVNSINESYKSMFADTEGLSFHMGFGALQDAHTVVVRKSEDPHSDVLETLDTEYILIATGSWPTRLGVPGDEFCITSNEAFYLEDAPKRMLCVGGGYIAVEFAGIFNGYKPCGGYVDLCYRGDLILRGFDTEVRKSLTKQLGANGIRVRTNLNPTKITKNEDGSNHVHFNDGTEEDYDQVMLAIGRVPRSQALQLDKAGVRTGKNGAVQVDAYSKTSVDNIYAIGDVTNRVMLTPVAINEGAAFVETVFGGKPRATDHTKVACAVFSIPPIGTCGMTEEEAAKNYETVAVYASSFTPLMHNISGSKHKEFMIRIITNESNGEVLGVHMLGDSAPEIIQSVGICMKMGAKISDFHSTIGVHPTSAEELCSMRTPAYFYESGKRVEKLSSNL
# [2] = molecular target: Trypanothione reductase (Trypanosoma cruzi) (UniProt P28593); assay: Inhibition of trypanothione reductase epimastigotes of Trypanosoma cruzi Y extracts assessed as NADPH consumption using trypanothione disulfide as substrate at 1 uM after 5 sec by spectrophotometer
# Chain of Trypanothione reductase (Trypanosoma cruzi) (P28593 whole entry, looked up): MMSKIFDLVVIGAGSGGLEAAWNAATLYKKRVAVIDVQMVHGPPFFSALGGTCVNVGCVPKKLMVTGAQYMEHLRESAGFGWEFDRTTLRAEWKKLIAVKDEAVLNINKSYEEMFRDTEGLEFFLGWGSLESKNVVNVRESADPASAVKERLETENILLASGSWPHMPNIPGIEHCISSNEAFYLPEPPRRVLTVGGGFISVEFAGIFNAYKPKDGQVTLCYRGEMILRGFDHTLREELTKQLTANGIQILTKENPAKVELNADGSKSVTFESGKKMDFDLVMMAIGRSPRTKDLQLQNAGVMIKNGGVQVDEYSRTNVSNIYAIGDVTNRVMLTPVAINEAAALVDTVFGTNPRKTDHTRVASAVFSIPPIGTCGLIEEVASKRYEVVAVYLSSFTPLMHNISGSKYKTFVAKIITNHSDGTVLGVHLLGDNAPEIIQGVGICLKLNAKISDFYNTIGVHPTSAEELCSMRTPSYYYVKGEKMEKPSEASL
# [3] = molecular target: Trypanothione reductase (Leishmania amazonensis) (UniProt A5JV95); assay: Inhibition of trypanothione reductase in Leishmania amazonensis MHOM/BR/LTB0016 extracts assessed as NADPH consumption using trypanothione disulfide as substrate at 1 uM after 5 sec by spectrophotometer
# Chain of Trypanothione reductase (Leishmania amazonensis) (A5JV95 as listed by the source): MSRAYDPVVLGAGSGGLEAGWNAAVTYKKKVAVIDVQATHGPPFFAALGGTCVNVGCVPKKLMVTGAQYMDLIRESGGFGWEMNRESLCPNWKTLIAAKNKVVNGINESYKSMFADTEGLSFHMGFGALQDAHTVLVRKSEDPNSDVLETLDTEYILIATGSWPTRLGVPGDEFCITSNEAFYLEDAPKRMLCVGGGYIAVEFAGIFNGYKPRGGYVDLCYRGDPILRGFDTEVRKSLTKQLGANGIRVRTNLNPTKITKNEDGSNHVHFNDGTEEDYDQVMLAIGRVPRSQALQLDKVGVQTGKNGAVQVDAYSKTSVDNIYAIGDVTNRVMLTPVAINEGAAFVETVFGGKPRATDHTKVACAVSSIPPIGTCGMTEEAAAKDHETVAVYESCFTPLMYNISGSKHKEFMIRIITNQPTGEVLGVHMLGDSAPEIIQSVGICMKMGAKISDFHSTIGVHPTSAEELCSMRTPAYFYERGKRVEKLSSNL
# [4] = molecular target: Trypanothione reductase (Leishmania infantum) (UniProt A4HSF7); assay: Inhibition of recombinant Leishmania infantum MHOM/MA67ITMAP263 trypanothione reductase assessed as inhibition of NADPH consumption using trypanothione disulfide as substrate at 1 uM after 60 secs by spectrophotometer
# Leishmania braziliensis = assay: Inhibition of trypanothione reductase in promastigotes of Leishmania braziliensis MCAN/BR/98/R619 extracts assessed as NADPH consumption using trypanothione disulfide as substrate at 1 uM after 5 sec by spectrophotometer
# [5] = molecular target: Trypanothione reductase (Trypanosoma cruzi) (UniProt P28593); assay: Inhibition of recombinant Trypanosoma cruzi Y trypanothione reductase assessed as inhibition of NADPH consumption using trypanothione disulfide as substrate at 1 uM after 60 secs by spectrophotometer
inhibition [1] [%],inhibition [2] [%],inhibition [3],inhibition [4],inhibition (Leishmania braziliensis) [%],inhibition [5],Structure (SMILES)
70,83,76%,76%,69.5,69%,O=[N+]([O-])c1ccc(/C=C/c2sc(Nc3ccccc3)n[n+]2-c2ccccc2)cc1
–,–,inactive,inactive,–,inactive,C(=C\c1sc(Nc2ccccc2)n[n+]1-c1ccccc1)/c1ccccc1
–,–,inactive,–,–,–,COc1ccc(/C=C/c2sc(Nc3ccccc3)n[n+]2-c2ccccc2)cc1
–,–,inactive,–,–,–,COc1cccc(/C=C/c2sc(Nc3ccccc3)n[n+]2-c2ccccc2)c1
